This is an account of results in the supplement of paper PMC11208160.

The data set in a line: recombinant UMI read abundance after kanamycin selection (control-corrected) (log10(CPM+1)); higher = more efficient recombination; extreme values may be limits of the assay; sequences stand for … in AGTGCAGAGAAAATCGGCCAGTTTTCTCTGCCTGCAGTCCGCATGCCGTGGGACCCCTTGGGTTCTAACCTGTTGCCTAGATTTATGCAGCGGACTGCCTTTCTCCCAAAGTGATAAACCGG…AGGTTGGTTTCACT; site = the 11-nt donor. As to the method: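 Pooled E. coli donor-specificity screen for the IS621 bridge recombinase. Each library member carries a reprogrammed 11-nt donor and a full-length LE bridge RNA expressed in cis from the natural promoter, with a paired donor-binding loop (8-nt LDG + 4-nt RDG) and a target-binding loop fixed to T5. It is co-electroporated with a T5 target plasmid; recombinase is induced with 0.07 mM IPTG and recombinants are selected on kanamycin. UMIs are counted as CPM, averaged over two biological replicates and corrected by the unselected control. Molecule = full bridge RNA written as DNA, built from the T5 scaffold: LDG = donor specificity nt 1-8, RDG = reverse complement of nt 8-11.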
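Note: IS621 bridge recombinase in Escherichia coli cells against a fixed T5 target plasmid.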

Take “AAGGTCACATGGACCGGTTTTCCCGGTAATCCGTATTTGAG (site AAGGTCACTCT)”: the “recombinant UMI read abundance (log10)” value stood at 1.55.

With “AAGGTCACATGGACCGGTTTTCCCGGTAATCCGTATTTGGA (site AAGGTCACTTC)”, the “recombinant UMI read abundance (log10)” value was 1.14.

As to “AAGGTGTCATGGACCGGTTTTCCCGGTAATCCGTATTTGAC (site AAAGTGTCTGT)”, the “recombinant UMI read abundance (log10)” value amounted to 1.13.

On to “AAGGTGTCATGGACCGGTTTTCCCGGTAATCCGTATTTGAC (site AACGTGTCTGT)”, for which the “recombinant UMI read abundance (log10)” value stood at 0.678.

“AAGGTGTCATGGACCGGTTTTCCCGGTAATCCGTATTTGAC (site AAGGTGTCTGT)”: the “recombinant UMI read abundance (log10)” value is 3.31.

As for “AAGGTGTCATGGACCGGTTTTCCCGGTAATCCGTATTTGAC (site AATGTGTCTGT)”, the “recombinant UMI read abundance (log10)” value was found to be 0.

Regarding “AAGTAATCATGGACCGGTTTTCCCGGTAATCCGTATTTGAG (site AAGTAATCTCT)”, the “recombinant UMI read abundance (log10)” value came to 2.78.

With “AAGTAGGCATGGACCGGTTTTCCCGGTAATCCGTATTTGGC (site AAGTAGGCTGC)”, the “recombinant UMI read abundance (log10)” value was determined as 2.2.

As for “AAGTAGGCATGGACCGGTTTTCCCGGTAATCCGTATTTGGC (site ACGTAGGCTGC)”, the “recombinant UMI read abundance (log10)” value stood at 1.04.

Turning to “AAGTAGGCATGGACCGGTTTTCCCGGTAATCCGTATTTGGC (site AGGTAGGCTGC)”, the “recombinant UMI read abundance (log10)” value was found to be 0.265.

“AAGTAGGCATGGACCGGTTTTCCCGGTAATCCGTATTTGGC (site ATGTAGGCTGC)”: the “recombinant UMI read abundance (log10)” value was 1.41.

Regarding “AAGTCGCCATGGACCGGTTTTCCCGGTAATCCGTATTTGAC (site AAGTCGCCTGT)”, the “recombinant UMI read abundance (log10)” value came to 0.

Take “AAGTGCACATGGACCGGTTTTCCCGGTAATCCGTATTTGGT (site AAGTGCACTAC)”: the “recombinant UMI read abundance (log10)” value was 0.762.

Regarding “AAGTGTACATGGACCGGTTTTCCCGGTAATCCGTATTTGTG (site AAGTGTACTCA)”, the “recombinant UMI read abundance (log10)” value came to 0.962.

In the case of “AATAAACCATGGACCGGTTTTCCCGGTAATCCGTATTTGCC (site AATAAACCTGG)”, the “recombinant UMI read abundance (log10)” value was found to be 0.

As to “AATAAACCATGGACCGGTTTTCCCGGTAATCCGTATTTGTG (site AATAAACCTCA)”, the “recombinant UMI read abundance (log10)” value came out at 0.00291.

Take “AATAATTCATGGACCGGTTTTCCCGGTAATCCGTATTTGAT (site AATAATTCTAT)”: the “recombinant UMI read abundance (log10)” value amounted to 0.955.

Turning to “AATAGCACATGGACCGGTTTTCCCGGTAATCCGTATTTGGC (site AATAGCACTGC)”, the “recombinant UMI read abundance (log10)” value is 2.04.

“AATATGTCATGGACCGGTTTTCCCGGTAATCCGTATTTGAC (site AATATGTCTGT)”: the “recombinant UMI read abundance (log10)” value amounted to 0.953.

On to “AATATGTCATGGACCGGTTTTCCCGGTAATCCGTATTTGAC (site AATCTGTCTGT)”, for which the “recombinant UMI read abundance (log10)” value is 0.

For the sequence “AATATGTCATGGACCGGTTTTCCCGGTAATCCGTATTTGAC (site AATGTGTCTGT)”, the “recombinant UMI read abundance (log10)” value stood at 0.

In the case of “AATATGTCATGGACCGGTTTTCCCGGTAATCCGTATTTGAC (site AATTTGTCTGT)”, the “recombinant UMI read abundance (log10)” value amounted to 0.

Consider “AATCCCACATGGACCGGTTTTCCCGGTAATCCGTATTTGCT (site AATCCCACTAG)”, for which the “recombinant UMI read abundance (log10)” value amounted to 1.77.

For “AATCCTCCATGGACCGGTTTTCCCGGTAATCCGTATTTGAT (site AATCCTCCTAT)”, the “recombinant UMI read abundance (log10)” value is 0.344.

“AATCGAGCATGGACCGGTTTTCCCGGTAATCCGTATTTGGA (site AATCGAGCTTC)”: the “recombinant UMI read abundance (log10)” value was determined as 0.474.

“AATCTAACATGGACCGGTTTTCCCGGTAATCCGTATTTGCT (site AATATAACTAG)”: the “recombinant UMI read abundance (log10)” value was 0.

Regarding “AATCTAACATGGACCGGTTTTCCCGGTAATCCGTATTTGCT (site AATCTAACTAG)”, the “recombinant UMI read abundance (log10)” value came out at 0.

As for “AATCTAACATGGACCGGTTTTCCCGGTAATCCGTATTTGCT (site AATGTAACTAG)”, the “recombinant UMI read abundance (log10)” value was 0.245.

“AATCTAACATGGACCGGTTTTCCCGGTAATCCGTATTTGCT (site AATTTAACTAG)”: the “recombinant UMI read abundance (log10)” value was 0.

On to “AATCTGTCATGGACCGGTTTTCCCGGTAATCCGTATTTGAC (site AATATGTCTGT)”, for which the “recombinant UMI read abundance (log10)” value was determined as 0.

Turning to “AATCTGTCATGGACCGGTTTTCCCGGTAATCCGTATTTGAC (site AATCTGTCTGT)”, the “recombinant UMI read abundance (log10)” value stood at 0.

In the case of “AATCTGTCATGGACCGGTTTTCCCGGTAATCCGTATTTGAC (site AATGTGTCTGT)”, the “recombinant UMI read abundance (log10)” value came out at 0.00511.

As for “AATCTGTCATGGACCGGTTTTCCCGGTAATCCGTATTTGAC (site AATTTGTCTGT)”, the “recombinant UMI read abundance (log10)” value amounted to 0.

In the case of “AATGAAACATGGACCGGTTTTCCCGGTAATCCGTATTTGCT (site AATGAAACTAG)”, the “recombinant UMI read abundance (log10)” value worked out at 1.94.

With “AATGAAACATGGACCGGTTTTCCCGGTAATCCGTATTTGCT (site AATGCAACTAG)”, the “recombinant UMI read abundance (log10)” value amounted to 0.479.

Turning to “AATGAAACATGGACCGGTTTTCCCGGTAATCCGTATTTGCT (site AATGGAACTAG)”, the “recombinant UMI read abundance (log10)” value worked out at 0.

Turning to “AATGAAACATGGACCGGTTTTCCCGGTAATCCGTATTTGCT (site AATGTAACTAG)”, the “recombinant UMI read abundance (log10)” value came to 1.65.

As to “AATGAAGCATGGACCGGTTTTCCCGGTAATCCGTATTTGTC (site AATGAAGCTGA)”, the “recombinant UMI read abundance (log10)” value amounted to 2.09.

On to “AATGGATCATGGACCGGTTTTCCCGGTAATCCGTATTTGAC (site AATGGATCTGT)”, for which the “recombinant UMI read abundance (log10)” value is 2.04.

As for “AATGTAACATGGACCGGTTTTCCCGGTAATCCGTATTTGCT (site AAAGTAACTAG)”, the “recombinant UMI read abundance (log10)” value is 1.76.

Turning to “AATGTAACATGGACCGGTTTTCCCGGTAATCCGTATTTGCT (site AACGTAACTAG)”, the “recombinant UMI read abundance (log10)” value stood at 2.22.

As to “AATGTAACATGGACCGGTTTTCCCGGTAATCCGTATTTGCT (site AAGGTAACTAG)”, the “recombinant UMI read abundance (log10)” value was found to be 1.84.

In the case of “AATGTAACATGGACCGGTTTTCCCGGTAATCCGTATTTGCT (site AATATAACTAG)”, the “recombinant UMI read abundance (log10)” value is 2.07.

Regarding “AATGTAACATGGACCGGTTTTCCCGGTAATCCGTATTTGCT (site AATCTAACTAG)”, the “recombinant UMI read abundance (log10)” value was 0.276.

Turning to “AATGTAACATGGACCGGTTTTCCCGGTAATCCGTATTTGCT (site AATGAAACTAG)”, the “recombinant UMI read abundance (log10)” value was 0.0158.

As to “AATGTAACATGGACCGGTTTTCCCGGTAATCCGTATTTGCT (site AATGCAACTAG)”, the “recombinant UMI read abundance (log10)” value was 0.239.

For “AATGTAACATGGACCGGTTTTCCCGGTAATCCGTATTTGCT (site AATGGAACTAG)”, the “recombinant UMI read abundance (log10)” value was 0.

As for “AATGTAACATGGACCGGTTTTCCCGGTAATCCGTATTTGCT (site AATGTAACTAA)”, the “recombinant UMI read abundance (log10)” value was determined as 0.0161.

Turning to “AATGTAACATGGACCGGTTTTCCCGGTAATCCGTATTTGCT (site AATGTAACTAC)”, the “recombinant UMI read abundance (log10)” value came out at 0.00758.

Take “AATGTAACATGGACCGGTTTTCCCGGTAATCCGTATTTGCT (site AATGTAACTAG)”: the “recombinant UMI read abundance (log10)” value came to 2.26.

In the case of “AATGTAACATGGACCGGTTTTCCCGGTAATCCGTATTTGCT (site AATGTAACTAT)”, the “recombinant UMI read abundance (log10)” value was 0.0618.

In the case of “AATGTAACATGGACCGGTTTTCCCGGTAATCCGTATTTGCT (site AATGTAACTCG)”, the “recombinant UMI read abundance (log10)” value turned out to be 0.0789.

Take “AATGTAACATGGACCGGTTTTCCCGGTAATCCGTATTTGCT (site AATGTAACTGG)”: the “recombinant UMI read abundance (log10)” value was 1.14.

Regarding “AATGTAACATGGACCGGTTTTCCCGGTAATCCGTATTTGCT (site AATGTAACTTG)”, the “recombinant UMI read abundance (log10)” value came to 0.00409.

For the sequence “AATGTAACATGGACCGGTTTTCCCGGTAATCCGTATTTGCT (site AATGTACCTAG)”, the “recombinant UMI read abundance (log10)” value stood at 0.

Consider “AATGTAACATGGACCGGTTTTCCCGGTAATCCGTATTTGCT (site AATGTAGCTAG)”, for which the “recombinant UMI read abundance (log10)” value was 0.332.

Regarding “AATGTAACATGGACCGGTTTTCCCGGTAATCCGTATTTGCT (site AATGTATCTAG)”, the “recombinant UMI read abundance (log10)” value amounted to 1.67.

“AATGTAACATGGACCGGTTTTCCCGGTAATCCGTATTTGCT (site AATGTCACTAG)”: the “recombinant UMI read abundance (log10)” value came to 0.198.

Regarding “AATGTAACATGGACCGGTTTTCCCGGTAATCCGTATTTGCT (site AATGTGACTAG)”, the “recombinant UMI read abundance (log10)” value stood at 0.422.

Turning to “AATGTAACATGGACCGGTTTTCCCGGTAATCCGTATTTGCT (site AATGTTACTAG)”, the “recombinant UMI read abundance (log10)” value came out at 1.14.

As for “AATGTAACATGGACCGGTTTTCCCGGTAATCCGTATTTGCT (site AATTTAACTAG)”, the “recombinant UMI read abundance (log10)” value was 0.682.

In the case of “AATGTAACATGGACCGGTTTTCCCGGTAATCCGTATTTGCT (site ACTGTAACTAG)”, the “recombinant UMI read abundance (log10)” value came out at 1.84.

Regarding “AATGTAACATGGACCGGTTTTCCCGGTAATCCGTATTTGCT (site AGTGTAACTAG)”, the “recombinant UMI read abundance (log10)” value was determined as 1.51.

In the case of “AATGTAACATGGACCGGTTTTCCCGGTAATCCGTATTTGCT (site ATTGTAACTAG)”, the “recombinant UMI read abundance (log10)” value is 2.07.

As for “AATGTAACATGGACCGGTTTTCCCGGTAATCCGTATTTGCT (site CATGTAACTAG)”, the “recombinant UMI read abundance (log10)” value is 2.37.
